Experimental data reported in patent US10626108B2, “Heterocyclic indoles for use in influenza virus infection” (Janssen Sciences Ireland UC, priority 2015, dated 2020).

Key:
[1] = test system: influenza virus A/Taiwan/1/86 (H1N1); assay: organism not typed; type: cell-based; conditions: 72 h; MDCK cells infected with influenza A/Taiwan/1/86 (H1N1), MOI 0.001 or 0.01; CPE via ATP levels three days post-virus exposure
[2] = in vitro; conditions: dog

Compound Cc1nc(-c2c[nH]c3c(F)cc(F)cc23)nc(N[C@H]2CCC[C@@H](NC(=O)c3cn(C)cn3)C2)c1F [Compound 13] has an IC50 [1] of 1 nM and a CC50 at 3 days [2] of 10400 nM.
With Cc1nc(-c2c[nH]c3c(F)cc(F)cc23)nc(N[C@H]2CCC[C@@H](NC(=O)c3csc(C(=O)O)n3)C2)c1F [Compound 29] the IC50 [1] was 2 nM and the CC50 at 3 days [2] was 21000 nM.
Work on O=C(N[C@H]1CCC[C@@H](Nc2cncc(-c3c[nH]c4c(F)cc(F)cc34)n2)C1)N1CCCC1 [Compound 25] yielded an IC50 [1] of 26 nM and a CC50 at 3 days [2] of 9700 nM.
In the case of O=C(N[C@H]1CCC[C@@H](Nc2nc(-c3c[nH]c4c(F)cc(F)cc34)nc(C(=O)O)c2F)C1)c1cnn[nH]1 [Compound 36], the IC50 [1] is reported as 7 nM and the CC50 at 3 days [2] is reported as over 25000 nM.
For Cc1nc(-c2c[nH]c3ncncc23)nc(N[C@@H]2CCC[C@H](NC(=O)c3ccccn3)C2)c1F [Compound 21], the IC50 [1] was 1 nM and the CC50 at 3 days [2] was over 25000 nM.
For O=C(N[C@H]1CCC[C@@H](Nc2cnnc(-c3c[nH]c4c(F)cc(F)cc34)n2)C1)N1CCCC1 [Compound 28], the IC50 [1] was 8 nM and the CC50 at 3 days [2] was 15500 nM.
For Cc1nc(-c2c[nH]c3c(F)cc(F)cc23)nc(N[C@H]2CCC[C@@H](NC(=O)c3cnn[nH]3)C2)c1F [Compound 15], the IC50 [1] was 0.2 nM and the CC50 at 3 days [2] was 3400 nM.
Compound Cc1nc(-c2c[nH]c3c(F)cc(F)cc23)nc(N[C@H]2CCC[C@@H](NC(=O)c3cnn(C)c3)C2)c1F [Compound 14] has an IC50 [1] of 2 nM and a CC50 at 3 days [2] of over 25000 nM.
Compound O=C(O)[C@H]1C2CCC(CC2)[C@@H]1Nc1cnnc(-c2c[nH]c3c(F)cc(F)cc23)n1 (racemic) [Compound 6] has an IC50 [1] of 130 nM and a CC50 at 3 days [2] of over 5000 nM.
